What is called EC50 is the concentration that produces a half-maximal response.

Active and inactive are the calls of the source.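 How the source made its calls: active means dose response that fits an S-shaped curve with fit quality R squared above 0.5; inactive means the rest.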

One test deals with G protein-activated inward rectifier potassium channel 1 (Rattus norvegicus) (UniProt P63251). Description: alpha2C activation measured by GIRK thallium influx – cell-based, thallium flux, dose response (AID 435014). The note with it: HEK293 alpha2C/GIRK1/2, thallium flux fluorescence.
Chain of G protein-activated inward rectifier potassium channel 1 (Rattus norvegicus) (P63251 whole entry, looked up): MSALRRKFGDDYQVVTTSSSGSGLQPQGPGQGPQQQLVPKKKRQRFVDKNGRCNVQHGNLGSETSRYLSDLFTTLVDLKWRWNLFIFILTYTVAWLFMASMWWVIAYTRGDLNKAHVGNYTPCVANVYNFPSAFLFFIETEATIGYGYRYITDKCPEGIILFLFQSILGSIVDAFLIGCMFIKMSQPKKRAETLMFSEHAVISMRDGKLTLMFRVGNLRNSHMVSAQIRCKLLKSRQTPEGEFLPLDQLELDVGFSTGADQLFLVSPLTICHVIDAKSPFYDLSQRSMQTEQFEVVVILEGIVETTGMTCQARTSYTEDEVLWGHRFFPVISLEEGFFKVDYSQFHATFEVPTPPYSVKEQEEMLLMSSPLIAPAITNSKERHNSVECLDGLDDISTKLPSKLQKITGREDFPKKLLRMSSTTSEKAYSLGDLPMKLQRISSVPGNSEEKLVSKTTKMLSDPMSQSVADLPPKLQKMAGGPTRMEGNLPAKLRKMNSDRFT
Regarding `CN(C)c1ccc(/C=C/C(O)=C2/C(=O)N(C)C3(C)CC2c2ccccc2O3)cc1` (stereo not given), the half-maximal effective concentration (EC50) is 1990 nM.

For the compound `Cc1c2ccncc2c(C)c2c1[nH]c1ccccc12`, the EC50 is 3080 nM.

Consider `Brc1c(NC2=NCCN2)ccc2nccnc12`, for which the EC50 is 82 nM.

`C[C@H]1OC[C@@H](C[N+](C)(C)C)O1`: the EC50 is 393 nM.

As to `CC(=O)OCC[N+](C)(C)C`, the EC50 is 134 nM.

The same test, now with this note: HEK293 alpha2C/GIRK1/2, thallium flux fluorescence; at 10 µM (top of the series).
Regarding `COC(=O)c1ccccc1NC(=O)c1ccc(-c2ccccc2F)o1`, the activation entry was “inactive”.

Regarding `COc1ccc(-c2noc(-c3cc(Cl)ccc3Cl)n2)cc1OC`, the activation entry was “inactive”.

Regarding `CCN(CC)c1ccc2cc(C(=O)Nc3ccccn3)c(=O)oc2c1`, the activation result is “inactive”.

With `CCc1cc2c(=O)c(-c3ccc4c(c3)OCCO4)coc2cc1OC(=O)c1ccco1`, the activation entry was “inactive”.

Regarding `COC(=O)c1c(NC(=O)c2nn(C)cc2Cl)sc2c1CCCC2`, the activation entry was “inactive”.

In the case of `COc1ccc(-c2nnc(SCC(=O)Nc3ccc(Cl)cc3)n2C)cc1`, the activation entry was “inactive”.

With `CCOc1nc(-c2ccccc2)ccc1-c1noc(-c2ccc(OC)c(OC)c2)n1`, the activation entry was “inactive”.

In the case of `COc1ccccc1NC(=O)c1oc2ccccc2c1NC(=O)c1cc(OC)c(OC)c(OC)c1`, the activation entry was “inactive”.

On to `N#CCSc1nc2c(c(=O)n1Cc1ccco1)C1(CCCC1)Cc1ccccc1-2`, for which the activation result was “inactive”.

As for `C/C(Cl)=C/Cn1c(SCc2ccc(Cl)cc2)nc2c1c(=O)[nH]c(=O)n2C`, the activation result was “inactive”.

With `COCCOC(=O)c1c(C)oc2ccc(OC(=O)COc3c(F)c(F)c(F)c(F)c3F)cc12`, the activation entry was “inactive”.

Take `O=S(=O)(c1ccc(S(=O)(=O)N(Cc2ccco2)Cc2ccccc2Cl)cc1)N1CCCC1`: the activation result is “inactive”.

`c1ccc2c(-c3nc(C4CCCCC4)no3)cc(-c3ccncc3)nc2c1`: the activation entry was “inactive”.

On to `N#Cc1nc(COc2ccc(Br)cc2)oc1N1CCN(Cc2ccccc2)CC1`, for which the activation entry was “inactive”.

Consider `COc1cccc2c1C(=O)c1c(O)c3c(c(O)c1C2=O)C[C@@](O)(C(=O)CO)C[C@@H]3O[C@H]1C[C@H](N)[C@H](O)[C@H](C)O1`, for which the activation entry was “inactive”.

For the compound `COc1ccc(-c2noc(CCC(=O)Nc3nc4ccccc4s3)n2)cc1`, the activation entry is “inactive”.

In the case of `CSc1nc2sc3c(c2c(=O)[nH]1)CCC(C)C3` (stereo not given), the activation result was “inactive”.

With `O=S(=O)(c1ccccc1)N(Cc1nc(-c2ccccc2)no1)C1CCCCC1`, the activation entry was “inactive”.

As for `CCOc1ccc2nc(NC(=O)CSc3nc4ccccc4c(=O)n3Cc3ccco3)sc2c1`, the activation result was “inactive”.

On to `CCCSc1nc(N2CCOCC2)c2c(c1C#N)CCCC2`, for which the activation entry is “inactive”.

In the case of `Cc1ccc(-c2nn(-c3ccccc3)cc2/C=C(\C#N)c2cccc(C#N)c2)o1`, the activation result was “inactive”.

As to `CCOC(=O)CSc1nc2cc(C(=O)NCc3ccco3)ccc2c(=O)n1-c1ccc(F)cc1`, the activation entry is “inactive”.

As to `CCOc1ccc(S(=O)(=O)N2CCN(c3ccc(C)cc3C)CC2)cc1`, the activation result was “inactive”.

On to `CC1(C)Cc2c(C#N)c(SCCOc3ccccc3)nc(N3CCOCC3)c2CO1`, for which the activation result was “inactive”.

Consider `CCOC(=O)c1c(-c2ccc(C)o2)csc1NC(=O)COC(=O)c1cccs1`, for which the activation entry was “inactive”.

As for `C=CCn1c(=S)[nH]c2ccccc2c1=O`, the activation result was “inactive”.

As to `CCSc1nnc(NC(=O)NC(CC)(C(F)(F)F)C(F)(F)F)s1`, the activation entry was “inactive”.

For the compound `CCC(=O)Oc1ccc(C(CC)C(CC)c2ccc(OC(=O)CC)cc2)cc1` (stereo not given), the activation result was “inactive”.

Turning to `COC(=O)c1ccccc1NC(=O)c1noc2c1CC(C(C)(C)C)CC2` (stereo not given), the activation entry is “inactive”.

As to `CC(C)(C)c1cc(-c2ccco2)c(C#N)c(SCC#N)n1`, the activation entry was “inactive”.

Take `Cc1ccc2c(C)nc(Nc3nc(CSc4nnnn4-c4ccccc4)cc(=O)[nH]3)nc2c1`: the activation entry was “inactive”.

As to `CCCCC(=O)O[C@H]1CC[C@H]2[C@@H]3CCc4cc(O)ccc4[C@H]3CC[C@]12C`, the activation result was “inactive”.

Regarding `COC(=O)c1ccc(-c2sc3nc(N4CCOCC4)c4c(c3c2N)CCCC4)o1`, the activation result is “inactive”.

Turning to `N#Cc1ccccc1Cn1c(=O)n(Cc2ccc(C(=O)NCc3ccco3)cc2)c(=O)c2ccccc21`, the activation result is “inactive”.

On to `Cc1ccc(Cl)cc1N1CCN(C(=O)CN2C(=O)c3cccc4cccc2c34)CC1`, for which the activation entry is “inactive”.

On to `CC1(C)Cc2c(c(N3CCOCC3)nc3sc4c(NCc5ccco5)nnnc4c23)CS1`, for which the activation entry is “inactive”.

As to `Cc1sccc1C1C(C#N)=C(N)SC(N)=C1C#N`, the activation entry is “inactive”.

In the case of `O=C(c1ccc(Cl)cc1)N1CCCCC(Sc2nnc(-c3ccc4c(c3)OCO4)o2)C1=O` (stereo not given), the activation result is “inactive”.

As to `COc1ccc2cc(CN(Cc3ccco3)C(c3nnnn3C3CCCCC3)C(C)C)c(=O)[nH]c2c1` (stereo not given), the activation result is “inactive”.

Regarding `CCCOc1ccc(-c2nnn(CC(=O)Nc3cccc(C(=O)OC)c3)n2)cc1`, the activation result was “inactive”.

Regarding `C=CCOC(=O)C1=C(C)NC(SCC(=O)Nc2ccc(C)c(Cl)c2)=C(C#N)C1c1ccco1` (stereo not given), the activation result is “inactive”.

As to `COc1cccc2c1C(=O)c1c(O)c3c(c(O)c1C2=O)C[C@@](O)(C(C)=O)C[C@@H]3O[C@H]1C[C@H](N)[C@H](O)[C@H](C)O1`, the activation result is “inactive”.

For `Cc1ccc(SCc2c(C#N)c3ccccc3n2C)cc1`, the activation result is “inactive”.

As to `O=C(NCCSCc1ccco1)Nc1cccc(Cl)c1`, the activation result was “inactive”.

As to `COc1ccc(-c2oc3ncn4nc(Cc5ccccc5)nc4c3c2-c2ccc(OC)cc2)cc1`, the activation entry is “inactive”.

With `C[C@]12CC[C@@H]3c4ccc(OC(=O)c5ccccc5)cc4CC[C@H]3[C@@H]1CC[C@@H]2O`, the activation entry was “inactive”.

`O=c1c2ccccc2sn1-c1ccc(S(=O)(=O)N2CCCCC2)cc1`: the activation result was “inactive”.

For `O=c1c(-c2ccc3c(c2)OCCO3)c(C(F)(F)F)oc2cc(O)cc(O)c12`, the activation result was “inactive”.

For `CCOC(=O)c1sc(NC(=O)c2noc3c2CCCC3)c(C(=O)OCC)c1C`, the activation entry is “inactive”.

`COc1cc(C(=O)Nc2cccc(-c3nc4cc(C)ccc4o3)c2)cc(OC)c1OC`: the activation entry is “inactive”.

Regarding `COc1ccc(CN(C(=O)CSc2nnc(-c3ccccc3F)o2)c2ccc(F)cc2)cc1`, the activation result was “inactive”.

Turning to `CC(=O)OC(C)C[N+](C)(C)C` (stereo not given), the activation entry was “inactive”.

For `CCOC(=O)c1ccc(NC(=O)NC(C)C2CCCO2)cc1` (stereo not given), the activation result was “inactive”.

For the compound `N#CCc1nc(CSc2nc3ccccc3s2)cs1`, the activation entry is “inactive”.

Regarding `COc1ccc(-c2oc3ncn4nc(COc5ccccc5)nc4c3c2-c2ccc(OC)cc2)cc1`, the activation entry was “inactive”.

Regarding `Cc1c(C(=O)NC2CCCc3ccccc32)oc2ccc(S(=O)(=O)N3CCOCC3)cc12` (stereo not given), the activation entry is “inactive”.

For the compound `O=C(NCc1ccco1)c1cc2cc3ccc(Cl)cc3nc2o1`, the activation result is “inactive”.

`Cc1ccc(-c2cc(C(F)F)nc(N3CCC(C)CC3)n2)cc1`: the activation entry was “inactive”.

Take `COc1cccc(-c2nc(-c3ccc(NC(=O)Cc4ccccc4OC)cc3)no2)c1`: the activation result is “inactive”.

With `N/C(=N\c1nc2ccccc2o1)NC(=O)c1ccccc1NC(=O)c1ccccc1`, the activation result is “inactive”.

The values are drawn from PubChem BioAssay AID435014 (Vanderbilt High Throughput Screening Facility, 2010).
